The target of experiment [1] is Dual specificity protein kinase CLK2 (Homo sapiens, UniProt P49760). It is filed as functional.
The target in experiment [2] is Cyclin-dependent kinase 8 (Homo sapiens, UniProt P49336). The experiment is described as follows: Navigating the Kinome. Panel member name: CDK8. The class given is functional.
The target of experiment [3] is Mitogen-activated protein kinase 9 (Homo sapiens, UniProt P45984). The class given is functional.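 Note: value from a kinome panel profiling assay, MAPK9 panel entry.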
Mitogen-activated protein kinase 9, sequence (P45984 whole entry): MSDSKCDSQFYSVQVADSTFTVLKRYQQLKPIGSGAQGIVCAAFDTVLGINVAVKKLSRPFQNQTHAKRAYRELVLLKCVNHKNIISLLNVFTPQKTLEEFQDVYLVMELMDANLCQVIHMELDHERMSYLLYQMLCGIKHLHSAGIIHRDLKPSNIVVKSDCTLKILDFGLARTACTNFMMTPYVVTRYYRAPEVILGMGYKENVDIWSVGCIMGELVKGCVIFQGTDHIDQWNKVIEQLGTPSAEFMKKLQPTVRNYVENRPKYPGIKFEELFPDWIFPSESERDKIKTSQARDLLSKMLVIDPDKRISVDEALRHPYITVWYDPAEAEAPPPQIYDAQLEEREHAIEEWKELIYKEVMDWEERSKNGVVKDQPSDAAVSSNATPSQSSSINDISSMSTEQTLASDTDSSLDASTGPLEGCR
Experiment [4] concerns the target Proto-oncogene tyrosine-protein kinase receptor Ret (Homo sapiens, UniProt P07949). It is filed as functional.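 Note: measured within a kinome-wide profiling panel, RET as the panel member.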
Experiment [5] deals with Interleukin-1 receptor-associated kinase 4 (Homo sapiens, UniProt Q9NWZ3). The class given is functional.
Interleukin-1 receptor-associated kinase 4, sequence (Q9NWZ3 whole entry): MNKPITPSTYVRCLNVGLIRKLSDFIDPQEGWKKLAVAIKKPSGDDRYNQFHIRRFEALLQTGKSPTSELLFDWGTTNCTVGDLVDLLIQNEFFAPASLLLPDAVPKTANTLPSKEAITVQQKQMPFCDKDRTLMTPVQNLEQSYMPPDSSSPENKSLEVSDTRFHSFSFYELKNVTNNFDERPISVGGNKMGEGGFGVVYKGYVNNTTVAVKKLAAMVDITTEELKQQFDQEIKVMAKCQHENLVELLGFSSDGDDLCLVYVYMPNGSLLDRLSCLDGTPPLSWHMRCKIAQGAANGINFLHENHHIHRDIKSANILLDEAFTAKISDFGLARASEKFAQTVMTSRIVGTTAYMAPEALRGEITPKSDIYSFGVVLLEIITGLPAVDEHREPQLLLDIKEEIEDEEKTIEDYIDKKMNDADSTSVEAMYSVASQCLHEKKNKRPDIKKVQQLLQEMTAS
Experiment [6] addresses Vascular endothelial growth factor receptor 3 (Homo sapiens, UniProt P35916). The class given is functional.
Experiment [7] concerns the target Calcium/calmodulin-dependent protein kinase type II subunit gamma (Homo sapiens, UniProt Q13555). The class given is functional.
The target in experiment [8] is Receptor tyrosine-protein kinase erbB-2 (Homo sapiens, UniProt P04626). Nature of the experiment: Navigating the Kinome. Panel member name: ERBB2. The class given is functional.
Experiment [9] addresses Serine/threonine-protein kinase PAK 4 (Homo sapiens, UniProt O96013). The class given is functional.
Experiment [10] concerns the target 3-phosphoinositide-dependent protein kinase 1 (Homo sapiens, UniProt O15530). It is filed as functional.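 Note: value comes from the Navigating the Kinome panel, PDPK1 member.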
The target of experiment [11] is RAC-alpha serine/threonine-protein kinase (Homo sapiens, UniProt P31749). It is filed as functional.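 Note: AKT1 affinity measured as one member of a kinome-wide kinase profiling panel.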
Experiment [12] addresses Ribosomal protein S6 kinase alpha-5 (Homo sapiens, UniProt O75582). It is filed as functional.
Experiment [13] has as its target Serine/threonine-protein kinase PLK4 (Homo sapiens, UniProt O00444). The class given is functional.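 Note: PLK4 measured as one member of a kinome-wide kinase profiling panel.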
The target in a further experiment is Ephrin type-A receptor 2 (Homo sapiens, UniProt P29317). It is filed as functional.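 Note: EPHA2 tested as one member of a kinome-wide kinase panel.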
Ephrin type-A receptor 2, sequence (P29317 whole entry): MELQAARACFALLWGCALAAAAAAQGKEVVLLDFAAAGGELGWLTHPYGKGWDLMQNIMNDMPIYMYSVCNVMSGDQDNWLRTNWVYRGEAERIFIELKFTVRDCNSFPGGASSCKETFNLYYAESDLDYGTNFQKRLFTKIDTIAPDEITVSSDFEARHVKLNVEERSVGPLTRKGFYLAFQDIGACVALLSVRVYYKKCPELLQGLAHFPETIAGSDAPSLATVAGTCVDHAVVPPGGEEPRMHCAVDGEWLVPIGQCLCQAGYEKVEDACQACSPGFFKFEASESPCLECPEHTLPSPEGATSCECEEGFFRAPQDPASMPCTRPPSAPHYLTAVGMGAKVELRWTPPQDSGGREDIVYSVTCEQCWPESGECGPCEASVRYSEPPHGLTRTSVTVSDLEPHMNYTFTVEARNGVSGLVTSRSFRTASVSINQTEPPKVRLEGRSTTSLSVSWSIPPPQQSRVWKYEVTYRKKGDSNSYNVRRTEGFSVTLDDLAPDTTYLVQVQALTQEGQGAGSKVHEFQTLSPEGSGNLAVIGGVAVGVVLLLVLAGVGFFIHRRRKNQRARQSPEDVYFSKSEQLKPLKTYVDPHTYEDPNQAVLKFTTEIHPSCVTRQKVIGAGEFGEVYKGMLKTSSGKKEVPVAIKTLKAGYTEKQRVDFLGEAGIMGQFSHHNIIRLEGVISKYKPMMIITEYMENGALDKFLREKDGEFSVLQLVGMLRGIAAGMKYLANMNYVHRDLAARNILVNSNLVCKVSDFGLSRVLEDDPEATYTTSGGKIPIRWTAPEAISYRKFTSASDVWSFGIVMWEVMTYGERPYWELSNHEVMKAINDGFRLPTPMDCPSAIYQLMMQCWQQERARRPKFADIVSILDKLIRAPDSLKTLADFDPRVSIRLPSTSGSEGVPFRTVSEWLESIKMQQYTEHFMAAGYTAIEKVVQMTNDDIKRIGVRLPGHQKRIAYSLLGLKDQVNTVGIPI
The target in experiment [14] is Cyclin-dependent kinase 9 (Homo sapiens, UniProt P50750). The class given is functional.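 Note: value from the CDK9 entry of a kinome-spanning kinase panel.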
Experiment [15] deals with Mitogen-activated protein kinase 13 (Homo sapiens, UniProt O15264). The class given is functional.
Experiment [16] has as its target Casein kinase II subunit alpha (Homo sapiens, UniProt P68400). The class given is functional.
The target in experiment [17] is Tyrosine-protein kinase SYK (Homo sapiens, UniProt P43405). The class given is functional.
Experiment [18] has as its target Protein kinase C delta type (Homo sapiens, UniProt Q05655). It is filed as functional.
The target of experiment [19] is Tyrosyl-DNA phosphodiesterase 2 (Homo sapiens, UniProt O95551). Nature of the experiment: potency against TDP2 phosphodiesterase activity – biochemical, epi absorbance, IC50, dose response (AID 743297).
Tyrosyl-DNA phosphodiesterase 2, sequence (O95551 whole entry): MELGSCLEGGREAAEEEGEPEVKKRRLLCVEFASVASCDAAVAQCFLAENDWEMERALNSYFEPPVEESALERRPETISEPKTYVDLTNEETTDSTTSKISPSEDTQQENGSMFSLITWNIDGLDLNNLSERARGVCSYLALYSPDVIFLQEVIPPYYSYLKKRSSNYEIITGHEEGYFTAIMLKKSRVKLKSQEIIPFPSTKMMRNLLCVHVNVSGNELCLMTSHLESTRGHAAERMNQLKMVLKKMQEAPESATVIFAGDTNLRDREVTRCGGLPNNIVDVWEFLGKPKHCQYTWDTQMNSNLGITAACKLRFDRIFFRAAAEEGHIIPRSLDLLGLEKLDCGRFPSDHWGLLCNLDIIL
For experiment [20], the target named is T1, Histone-lysine N-methyltransferase NSD2 (Homo sapiens, UniProt O96028).
T1 sequence (O96028 whole entry): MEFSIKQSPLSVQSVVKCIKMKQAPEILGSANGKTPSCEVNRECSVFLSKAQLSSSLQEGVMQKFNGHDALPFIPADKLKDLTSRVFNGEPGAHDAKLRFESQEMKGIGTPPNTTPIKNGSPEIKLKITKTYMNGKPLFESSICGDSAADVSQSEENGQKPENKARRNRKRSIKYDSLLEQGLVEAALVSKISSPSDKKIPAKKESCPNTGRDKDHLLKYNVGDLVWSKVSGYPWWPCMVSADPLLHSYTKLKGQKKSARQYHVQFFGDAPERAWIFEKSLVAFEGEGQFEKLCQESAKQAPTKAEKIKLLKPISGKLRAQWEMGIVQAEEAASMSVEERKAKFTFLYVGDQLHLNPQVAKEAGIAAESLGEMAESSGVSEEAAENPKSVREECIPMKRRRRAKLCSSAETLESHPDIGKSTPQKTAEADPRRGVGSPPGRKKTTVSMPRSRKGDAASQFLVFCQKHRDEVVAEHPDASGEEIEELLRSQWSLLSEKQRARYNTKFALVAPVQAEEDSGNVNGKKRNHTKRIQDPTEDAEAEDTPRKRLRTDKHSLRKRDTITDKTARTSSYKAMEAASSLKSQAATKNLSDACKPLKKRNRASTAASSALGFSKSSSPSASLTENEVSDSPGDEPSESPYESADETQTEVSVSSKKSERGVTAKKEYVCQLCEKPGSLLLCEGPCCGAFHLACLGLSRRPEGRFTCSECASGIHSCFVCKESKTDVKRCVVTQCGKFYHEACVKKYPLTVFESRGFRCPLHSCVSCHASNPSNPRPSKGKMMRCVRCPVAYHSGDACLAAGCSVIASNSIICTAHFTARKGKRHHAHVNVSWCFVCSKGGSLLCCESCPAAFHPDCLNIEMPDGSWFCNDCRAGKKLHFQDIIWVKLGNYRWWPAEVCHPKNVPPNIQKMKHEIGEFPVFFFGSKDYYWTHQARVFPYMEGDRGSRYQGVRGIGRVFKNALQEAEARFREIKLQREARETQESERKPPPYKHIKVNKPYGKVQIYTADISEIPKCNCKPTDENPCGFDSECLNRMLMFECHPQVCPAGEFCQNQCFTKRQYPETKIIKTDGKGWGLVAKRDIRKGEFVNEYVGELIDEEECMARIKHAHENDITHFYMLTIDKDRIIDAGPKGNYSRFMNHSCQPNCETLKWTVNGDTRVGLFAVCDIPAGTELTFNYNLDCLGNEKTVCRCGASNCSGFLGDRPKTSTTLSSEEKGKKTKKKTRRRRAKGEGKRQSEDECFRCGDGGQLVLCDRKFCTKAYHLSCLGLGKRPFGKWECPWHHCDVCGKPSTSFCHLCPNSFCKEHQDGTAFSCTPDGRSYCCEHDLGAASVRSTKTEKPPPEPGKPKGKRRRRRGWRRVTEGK
The class given is biochemical.

Experiment [21] concerns the target T2, Sentrin-specific protease 8 (Homo sapiens, UniProt Q96LD8).
T2 sequence (Q96LD8 whole entry): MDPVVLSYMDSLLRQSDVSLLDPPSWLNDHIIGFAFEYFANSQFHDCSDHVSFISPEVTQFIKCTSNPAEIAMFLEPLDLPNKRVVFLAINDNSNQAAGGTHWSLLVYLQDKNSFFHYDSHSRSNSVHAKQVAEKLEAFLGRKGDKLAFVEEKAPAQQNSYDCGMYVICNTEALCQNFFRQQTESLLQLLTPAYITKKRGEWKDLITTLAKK
It is filed as functional.

In experiment [22] the target is T2, Sentrin-specific protease 8. It is filed as functional. This is another data set of the same source.
Experiment [23] addresses Serine/threonine-protein phosphatase PP1-alpha catalytic subunit (Homo sapiens, UniProt P62136). Nature of the experiment: inhibition of protein phosphatase 1 activity – biochemical, fluorescence, dose response (AID 2394).

SMILES strings stand for the structures. The source made the active and inactive calls. A value given as a limit tells only on which side of the number the result lay.

Casein kinase II subunit alpha, sequence (P68400 whole entry): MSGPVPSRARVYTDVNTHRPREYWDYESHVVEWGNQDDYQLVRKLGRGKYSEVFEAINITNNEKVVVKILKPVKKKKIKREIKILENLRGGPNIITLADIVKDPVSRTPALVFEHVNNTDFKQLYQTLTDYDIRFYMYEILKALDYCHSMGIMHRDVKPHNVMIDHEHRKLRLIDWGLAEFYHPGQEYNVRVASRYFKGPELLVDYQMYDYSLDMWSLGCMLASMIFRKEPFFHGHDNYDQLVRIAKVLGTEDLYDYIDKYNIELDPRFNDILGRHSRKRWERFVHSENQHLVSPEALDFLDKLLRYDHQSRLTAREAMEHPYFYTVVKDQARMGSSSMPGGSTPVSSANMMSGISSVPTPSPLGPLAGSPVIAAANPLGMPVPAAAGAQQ
Calcium/calmodulin-dependent protein kinase type II subunit gamma, sequence (Q13555 whole entry): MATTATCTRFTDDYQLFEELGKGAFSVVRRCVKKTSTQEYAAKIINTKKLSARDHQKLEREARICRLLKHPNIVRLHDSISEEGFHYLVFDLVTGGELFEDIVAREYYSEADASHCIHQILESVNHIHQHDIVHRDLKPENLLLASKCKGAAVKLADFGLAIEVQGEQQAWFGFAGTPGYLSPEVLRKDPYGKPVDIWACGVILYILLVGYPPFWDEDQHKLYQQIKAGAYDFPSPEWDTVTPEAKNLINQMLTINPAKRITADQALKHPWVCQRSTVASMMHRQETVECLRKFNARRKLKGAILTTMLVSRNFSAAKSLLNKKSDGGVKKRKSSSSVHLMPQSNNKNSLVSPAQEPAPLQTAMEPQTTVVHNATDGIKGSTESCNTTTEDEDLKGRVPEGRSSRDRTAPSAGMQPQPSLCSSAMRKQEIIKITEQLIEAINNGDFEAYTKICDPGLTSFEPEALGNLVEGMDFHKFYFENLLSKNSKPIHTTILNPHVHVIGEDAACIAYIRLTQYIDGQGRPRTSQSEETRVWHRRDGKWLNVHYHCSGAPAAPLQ
Proto-oncogene tyrosine-protein kinase receptor Ret, sequence (P07949 whole entry): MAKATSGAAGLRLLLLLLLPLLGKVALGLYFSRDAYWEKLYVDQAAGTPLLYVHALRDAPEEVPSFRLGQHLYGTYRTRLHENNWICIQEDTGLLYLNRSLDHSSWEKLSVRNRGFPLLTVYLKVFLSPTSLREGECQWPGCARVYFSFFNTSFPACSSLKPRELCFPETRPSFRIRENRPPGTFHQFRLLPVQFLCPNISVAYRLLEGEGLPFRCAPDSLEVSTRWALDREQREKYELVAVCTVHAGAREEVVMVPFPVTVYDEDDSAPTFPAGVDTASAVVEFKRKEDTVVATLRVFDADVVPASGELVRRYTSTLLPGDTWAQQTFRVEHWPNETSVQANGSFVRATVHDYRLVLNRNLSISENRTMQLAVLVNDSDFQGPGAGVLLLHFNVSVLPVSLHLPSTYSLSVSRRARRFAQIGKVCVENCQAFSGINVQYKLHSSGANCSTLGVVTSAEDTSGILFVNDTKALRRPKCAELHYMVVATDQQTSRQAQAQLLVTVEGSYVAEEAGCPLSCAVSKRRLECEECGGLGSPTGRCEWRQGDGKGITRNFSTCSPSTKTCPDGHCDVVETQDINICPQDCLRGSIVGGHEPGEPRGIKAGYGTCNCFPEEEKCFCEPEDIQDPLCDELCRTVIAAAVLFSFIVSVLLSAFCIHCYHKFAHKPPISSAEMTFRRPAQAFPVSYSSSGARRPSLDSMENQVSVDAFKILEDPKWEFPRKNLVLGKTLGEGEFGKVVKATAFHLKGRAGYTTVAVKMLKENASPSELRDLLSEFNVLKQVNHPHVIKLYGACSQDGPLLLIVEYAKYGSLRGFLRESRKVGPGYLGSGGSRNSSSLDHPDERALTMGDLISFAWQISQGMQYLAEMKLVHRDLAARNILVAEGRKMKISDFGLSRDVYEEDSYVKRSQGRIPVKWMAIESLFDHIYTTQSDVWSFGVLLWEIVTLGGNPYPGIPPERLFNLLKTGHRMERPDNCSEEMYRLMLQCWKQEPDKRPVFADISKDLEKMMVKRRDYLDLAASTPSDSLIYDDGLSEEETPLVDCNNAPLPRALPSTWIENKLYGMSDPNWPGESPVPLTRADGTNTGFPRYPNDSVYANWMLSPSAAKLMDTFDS
Cyclin-dependent kinase 8, sequence (P49336 whole entry): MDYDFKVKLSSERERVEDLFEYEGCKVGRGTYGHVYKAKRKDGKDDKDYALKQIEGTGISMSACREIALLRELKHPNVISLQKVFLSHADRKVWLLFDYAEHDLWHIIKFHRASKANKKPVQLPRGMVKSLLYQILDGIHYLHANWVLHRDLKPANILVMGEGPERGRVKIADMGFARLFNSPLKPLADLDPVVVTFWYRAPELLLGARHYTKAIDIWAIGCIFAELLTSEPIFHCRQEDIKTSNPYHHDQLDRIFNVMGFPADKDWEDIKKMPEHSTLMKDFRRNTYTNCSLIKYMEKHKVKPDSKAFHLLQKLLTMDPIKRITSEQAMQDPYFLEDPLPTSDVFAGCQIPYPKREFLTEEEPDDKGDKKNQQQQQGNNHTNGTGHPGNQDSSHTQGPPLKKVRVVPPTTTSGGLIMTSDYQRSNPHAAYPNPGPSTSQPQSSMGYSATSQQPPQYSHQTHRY

Regarding `CC(N)C1CCC(C(=O)Nc2ccnc3[nH]ccc23)CC1` (stereo not drawn), the Ki in [1] is 1.26 µM (active); in experiment [2] it was 0.501 µM (active); in experiment [3], > 3.98 µM (inactive); in experiment [4], > 2.51 µM (inactive); in [5] it was 2.51 µM (active); in [6], > 6.31 µM (inactive). In addition, the Ki in [7] was > 6.31 µM (inactive); in experiment [8] it was > 1.58 µM (inactive); in [9] it was 1.58 µM (active); in experiment [10], 0.631 µM (active); in experiment [11], 1.26 µM (active); in experiment [12] it was 0.631 µM (active). Besides, the Ki was 1.58 µM (active) in experiment [13]; > 3.16 µM (inactive) on Ephrin type-A receptor 2; > 1.58 µM (inactive) in [14]; > 7.94 µM (inactive) in [15]; > 6.31 µM (inactive) in [16]; > 1.58 µM (inactive) in [17]. Also, in experiment [18], the Ki was 0.158 µM (active).

Regarding `Cc1c(NC(=O)C(C)OC(=O)c2ccc([N+](=O)[O-])s2)c(=O)n(-c2ccccc2)n1C` (stereo not drawn), the IC50 in [19] is 49.5 µM (inactive); in experiment [21], 1.99 µM (active); in [22], 7.35 µM (active). The AC50 in experiment [20] is > 20 µM (inactive).

`COc1cc(Br)c(C(=O)c2nccc3cc(OC)c(OC)cc23)cc1OC`: the IC50 in experiment [19] is 3.53 µM (active); in [21] it was 2.29 µM (active); in experiment [22], 0.377 µM (active); in experiment [23] it was 52.1 µM (not active). In addition, the AC50 in [20] was 0.416 µM (active).

Broadly, the Ki is a dissociation constant, usually derived from enzyme kinetics or from competition with a known ligand. The term IC50 denotes the point on the concentration scale where inhibition reaches its midpoint. Broadly, the AC50 is the concentration at which the activity in the assay is half-maximal.

Values taken from ChEMBL document CHEMBL1201862, “PubChem BioAssay data set” (2004).
